The record followed here is patent US6824786B2, “Compositions comprising phenyl-glycine derivatives” (priority 2001, dated 2004).

Common to all, as to format: in vivo, human
For one assay, the system named is forearm skin. The experiment in a line: Forearm skin thickness by micrometer calipers (skin changes associated with aging). As to conditions: 10% cream twice daily to right forearm for four weeks; subject. On the procedure: In one of the studies related to skin changes associated with aging, skin thickness was measured by micrometer calipers as follows: The skin was grasped with a 2×6 cm metal hinge; the internal faces of which were coated with emery cloth to prevent slippage, and manually squeezed to threshold subject discomfort. Combined thickness of two whole-skin layers including thickness of the two hinge leaves was measured with micrometer calipers. Thickness of the two hinge leaves was subtracted to determine the actual thickness of two whole-skin layers. Triplicate measurements on treated sites were conducted and an average number was used for calculation of the skin thickness. A subject, applied topically twice daily N-acetyl-4-hydroxyphenyl-glycinamide 5% cream to their left forearm for eight weeks. […] While there was no change in skin thickness of their right forearm, their left forearm had increased 49% in skin thickness as measured by the micrometer calipers (Example 1). […] While there was no change in skin thickness of their right forearm, their left forearm had increased 24% in skin thickness as measured by the micrometer calipers (Example 1). […] While there was no change in skin thickness of their left forearm, their right forearm had increased 25% in skin thickness as measured by the micrometer calipers (Example 1).

The test system of another assay is chronic plaque psoriasis. Description: Topical treatment of chronic plaque psoriasis. The text has this:
A subject, having chronic plaque psoriasis for 55 year duration resistant to all forms of topical therapy, topically applied N-acetyl-4-hydroxyphenyl-glycinamide 10% cream twice daily to a thick plaque of psoriasis on the right elbow. […] The clinical evaluation was judged to be a 75% improvement after five days of topical treatment. […] Clinical evaluation rated the improvement to be about 90%. Three patients having chronic plaque psoriasis resistant to most forms of topical therapy topically applied N-acetyl-4-acetoxyphenyl-glycinamide 5% cream (Example 24) twice daily to thick plaques of psoriasis. […] The clinical evaluation was judged to be an 80% improvement after one week of topical treatment. […] Clinical evaluation rated the improvement on three patients to be from 95 to 100%.

The subject of assay [1] is severe dry skin condition of X-linked ichthyosis. Description: Topical treatment of X-linked ichthyosis skin under Hays Occlusive Chamber.
Setting [2] is: 5% cream twice daily, after one week, three patients.

For `CC(=O)NC(=O)CNc1ccc(OC(C)=O)cc1` [N-acetyl-4-acetoxyphenyl-glycinamide], in the assay with forearm skin, the “appearance of treated forearm” value was “more firm, smooth, plump and minimally wrinkled when lifted”; the “increase in skin thickness” value is recorded as 25%. Further, in the assay on chronic plaque psoriasis (5% cream (Example 24) twice daily, after one week, three patients), the “erythema and thickness of the plaques” value is “diminished substantially”. Besides, in the assay with chronic plaque psoriasis (setting [2]), the “clinical evaluation, improvement” value is reported as 80% and the psoriatic scales result is listed as “no evidence of any psoriatic scales”. Moreover, the “clinical appearance of treated area” value in the assay with chronic plaque psoriasis (5% cream twice daily, after two weeks, three patients) is “clinically normal”. Further, the “conclusion: topical treatment of psoriasis” value with chronic plaque psoriasis (cream twice daily) was “therapeutically effective”.
In the case of `COC(=O)CNc1ccc(O)cc1` [4-hydroxyphenyl-glycine methyl ester], the “conclusion: topical treatment of severe dry skin and symptomatic relief of congenital ichthyosis” value in assay [1] (10% cream) is recorded as “therapeutically effective”. For the same compound, the “clinical appearance of treated site after stopping treatment” value in assay [1] (10% cream one week under chamber, then another week without any further treatment) is “remained normal in clinical appearance”. For the same compound, the “clinical appearance of treated site” value in assay [1] (10% cream, 1 cm^2 involved skin of back under Hays Occlusive Chamber, after one week, subject) is on record as “free of all evidence of ichthyosis”.
